“And” between values parts separate entries of the source, which are not always exact repeats. Equal values may be shown once. ± gives the expanded uncertainty stated by the source.
How the values were obtained:
[1] = excess molar enthalpy (molar enthalpy of mixing); xn = mol fraction of the nth substance listed; details: 100 kPa, Liquid, Flow calorimetry
[2] = xn = mol fraction of the nth substance listed; details: 100 kPa, Liquid, Vibrating tube method

CC(=O)C(C)C [3-methyl-2-butanone] + O
Details	excess molar enthalpy, [1]	mass density, [2]
288.15 K, x1 = 0.000837	-0.0025 kcal/mol	998.559 ± 0.034 kg/m3 and 998.558 ± 0.034 kg/m3
288.15 K, x1 = 0.001672	-0.00495 kcal/mol and -0.00497 kcal/mol	998.026 ± 0.036 kg/m3 and 998.025 ± 0.036 kg/m3
288.15 K, x1 = 0.002505	-0.00739 ± 0.000263 kcal/mol	997.502 ± 0.038 kg/m3
288.15 K, x1 = 0.002506	-0.0074 ± 0.000263 kcal/mol	997.502 ± 0.038 kg/m3
288.15 K, x1 = 0.003337	-0.00974 ± 0.000335 kcal/mol	996.996 ± 0.067 kg/m3
288.15 K, x1 = 0.003339	-0.00976 ± 0.000335 kcal/mol	996.993 ± 0.04 kg/m3
288.15 K, x1 = 0.004168	-0.0121 ± 0.000359 kcal/mol	996.494 ± 0.043 kg/m3
288.15 K, x1 = 0.004171	-0.0121 ± 0.000359 kcal/mol	996.488 ± 0.043 kg/m3
288.15 K, x1 = 0.004998	-0.0145 ± 0.00043 kcal/mol	995.988 ± 0.046 kg/m3
288.15 K, x1 = 0.005001	-0.0144 ± 0.00043 kcal/mol	996 ± 0.046 kg/m3
298.15 K, x1 = 0.000836	-0.00207 kcal/mol	996.47 ± 0.035 kg/m3
298.15 K, x1 = 0.001671	-0.00411 ± 0.00022 kcal/mol	995.897 ± 0.037 kg/m3
298.15 K, x1 = 0.001672	-0.00411 ± 0.00022 kcal/mol	995.899 ± 0.037 kg/m3
298.15 K, x1 = 0.002505	-0.00612 kcal/mol and -0.00606 kcal/mol	995.337 ± 0.039 kg/m3 and 995.348 ± 0.039 kg/m3
298.15 K, x1 = 0.003337	-0.00802 kcal/mol and -0.00799 kcal/mol	994.799 ± 0.042 kg/m3 and 994.805 ± 0.042 kg/m3
298.15 K, x1 = 0.004166	-0.00989 ± 0.000335 kcal/mol	994.261 ± 0.045 kg/m3
298.15 K, x1 = 0.004168	-0.00994 ± 0.000335 kcal/mol	994.254 ± 0.045 kg/m3
298.15 K, x1 = 0.004994	-0.0118 ± 0.000359 kcal/mol	993.729 ± 0.063 kg/m3
298.15 K, x1 = 0.004998	-0.0118 ± 0.000359 kcal/mol	993.722 ± 0.063 kg/m3
308.15 K, x1 = 0.000836	-0.00164 ± 0.000198 kcal/mol	993.424 ± 0.036 kg/m3
308.15 K, x1 = 0.000837	-0.00163 ± 0.000198 kcal/mol	993.426 ± 0.036 kg/m3
308.15 K, x1 = 0.001672	-0.00322 kcal/mol and -0.00323 kcal/mol	992.827 ± 0.038 kg/m3 and 992.824 ± 0.038 kg/m3
308.15 K, x1 = 0.002504	-0.00478 ± 0.000229 kcal/mol	992.235 ± 0.041 kg/m3
308.15 K, x1 = 0.002506	-0.00482 ± 0.000229 kcal/mol	992.224 ± 0.041 kg/m3
308.15 K, x1 = 0.003336	-0.00632 ± 0.000263 kcal/mol	991.647 ± 0.044 kg/m3
308.15 K, x1 = 0.00334	-0.00634 ± 0.000263 kcal/mol	991.646 ± 0.044 kg/m3
308.15 K, x1 = 0.004167	-0.00783 ± 0.000287 kcal/mol	991.064 ± 0.047 kg/m3
308.15 K, x1 = 0.004171	-0.00781 ± 0.000287 kcal/mol	991.067 ± 0.047 kg/m3
308.15 K, x1 = 0.005001	-0.00926 ± 0.000311 kcal/mol	990.494 ± 0.063 kg/m3
318.15 K, x1 = 0.000836	-0.00121 kcal/mol	989.576 ± 0.038 kg/m3 and 989.578 ± 0.038 kg/m3
318.15 K, x1 = 0.00167	-0.00239 ± 0.000206 kcal/mol	988.947 ± 0.04 kg/m3
318.15 K, x1 = 0.001671	-0.00239 ± 0.000206 kcal/mol	988.945 ± 0.04 kg/m3
318.15 K, x1 = 0.002338	-0.0033 ± 0.000213 kcal/mol	988.447 ± 0.042 kg/m3
318.15 K, x1 = 0.002505	-0.00353 ± 0.000215 kcal/mol	988.318 ± 0.043 kg/m3
318.15 K, x1 = 0.003336	-0.00465 ± 0.000225 kcal/mol	987.702 ± 0.053 kg/m3
318.15 K, x1 = 0.003337	-0.00465 ± 0.000227 kcal/mol	987.696 ± 0.046 kg/m3
318.15 K, x1 = 0.004167	-0.00571 ± 0.000263 kcal/mol	987.091 ± 0.07 kg/m3
318.15 K, x1 = 0.004168	-0.00573 ± 0.000239 kcal/mol	987.083 ± 0.05 kg/m3
318.15 K, x1 = 0.004997	-0.00677 ± 0.000263 kcal/mol	986.477 ± 0.054 kg/m3
318.15 K, x1 = 0.004998	-0.00677 ± 0.000263 kcal/mol	986.481 ± 0.053 kg/m3

CCCC(C)=O [pentan-2-one] + O
Details	excess molar enthalpy, [1]	mass density, [2]
288.15 K, x1 = 0.000842	-0.00254 kcal/mol and -0.00255 kcal/mol	998.562 ± 0.034 kg/m3 and 998.56 ± 0.034 kg/m3
288.15 K, x1 = 0.001683	-0.00506 kcal/mol	998.027 ± 0.036 kg/m3 and 998.026 ± 0.036 kg/m3
288.15 K, x1 = 0.002522	-0.00753 kcal/mol and -0.00751 kcal/mol	997.512 ± 0.037 kg/m3 and 997.513 ± 0.037 kg/m3
288.15 K, x1 = 0.00336	-0.00987 ± 0.000335 kcal/mol	997.021 ± 0.04 kg/m3
288.15 K, x1 = 0.003361	-0.00991 ± 0.000335 kcal/mol	997.002 ± 0.04 kg/m3
288.15 K, x1 = 0.004197	-0.0122 ± 0.000382 kcal/mol	996.522 ± 0.043 kg/m3
288.15 K, x1 = 0.004198	-0.0123 ± 0.000382 kcal/mol	996.499 ± 0.043 kg/m3
288.15 K, x1 = 0.005032	-0.0146 ± 0.00043 kcal/mol	996.016 ± 0.045 kg/m3
288.15 K, x1 = 0.005035	-0.0146 ± 0.00043 kcal/mol	996.015 ± 0.045 kg/m3
298.15 K, x1 = 0.000841	-0.00207 ± 0.000203 kcal/mol	996.472 ± 0.035 kg/m3
298.15 K, x1 = 0.000842	-0.00207 ± 0.000203 kcal/mol	996.472 ± 0.035 kg/m3
298.15 K, x1 = 0.001681	-0.00411 ± 0.00022 kcal/mol	995.903 ± 0.037 kg/m3
298.15 K, x1 = 0.001682	-0.00412 ± 0.00022 kcal/mol	995.902 ± 0.037 kg/m3
298.15 K, x1 = 0.00252	-0.00613 ± 0.000263 kcal/mol	995.346 ± 0.039 kg/m3
298.15 K, x1 = 0.002521	-0.00617 ± 0.000263 kcal/mol	995.334 ± 0.039 kg/m3
298.15 K, x1 = 0.003357	-0.00809 ± 0.000287 kcal/mol	994.797 ± 0.042 kg/m3
298.15 K, x1 = 0.003358	-0.008 ± 0.000287 kcal/mol	994.811 ± 0.042 kg/m3
298.15 K, x1 = 0.004193	-0.00999 kcal/mol and -0.00995 kcal/mol	994.25 ± 0.045 kg/m3 and 994.26 ± 0.045 kg/m3
298.15 K, x1 = 0.005028	-0.0119 ± 0.000359 kcal/mol	993.716 ± 0.062 kg/m3
298.15 K, x1 = 0.005029	-0.0119 ± 0.000359 kcal/mol	993.707 ± 0.062 kg/m3
308.15 K, x1 = 0.000841	-0.00163 ± 0.000198 kcal/mol	–
308.15 K, x1 = 0.000842	-0.00164 ± 0.000198 kcal/mol	993.42 ± 0.036 kg/m3
308.15 K, x1 = 0.001681	-0.00322 ± 0.000213 kcal/mol	992.814 ± 0.038 kg/m3
308.15 K, x1 = 0.001683	-0.00322 ± 0.000213 kcal/mol	992.818 ± 0.038 kg/m3
308.15 K, x1 = 0.00252	-0.00476 ± 0.000229 kcal/mol	992.226 ± 0.041 kg/m3
308.15 K, x1 = 0.002522	-0.00473 ± 0.000227 kcal/mol	992.228 ± 0.041 kg/m3
308.15 K, x1 = 0.003358	-0.00626 ± 0.000263 kcal/mol	991.617 ± 0.044 kg/m3
308.15 K, x1 = 0.00336	-0.00623 ± 0.000263 kcal/mol	991.643 ± 0.044 kg/m3
308.15 K, x1 = 0.004194	-0.00773 ± 0.000287 kcal/mol	991.052 ± 0.047 kg/m3
308.15 K, x1 = 0.004197	-0.00775 ± 0.000287 kcal/mol	991.045 ± 0.047 kg/m3
308.15 K, x1 = 0.005031	-0.00918 ± 0.000311 kcal/mol	990.475 ± 0.063 kg/m3
308.15 K, x1 = 0.005034	-0.00916 ± 0.000311 kcal/mol	990.474 ± 0.063 kg/m3
318.15 K, x1 = 0.00084	-0.00118 ± 0.000194 kcal/mol	989.57 ± 0.038 kg/m3
318.15 K, x1 = 0.001679	-0.00232 ± 0.000206 kcal/mol	988.929 ± 0.04 kg/m3
318.15 K, x1 = 0.002517	-0.00341 ± 0.000215 kcal/mol	988.307 ± 0.043 kg/m3
318.15 K, x1 = 0.003354	-0.0045 ± 0.000225 kcal/mol	987.666 ± 0.046 kg/m3
318.15 K, x1 = 0.004189	-0.00553 ± 0.000239 kcal/mol	987.058 ± 0.049 kg/m3
318.15 K, x1 = 0.005024	-0.0065 ± 0.000263 kcal/mol	986.447 ± 0.054 kg/m3
